Data published in US8354402B2, “Polyarylcarboxamides useful as lipid lowering agents” (Janssen Pharmaceutica N.V., priority 2000, dated 2013).

Key:
[1] = test system: ApoB secretion, HepG2 cells; test: Quantification of the secretion of ApoB (HepG2 cells, immunoprecipitation, scintillation counting); format: cell-based; details: 24 hours of incubation; for IC50: Homo sapiens, HepG2, 24 h
In short: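 HepG2 cells in MEM Rega 3 with 10% FCS were treated at 70% confluency with compound (DMSO 0.4% final) for 24 h. Medium ApoB was immunoprecipitated with sheep anti-apoB then rabbit anti-sheep antibody (24 h each, 8° C), and pellet radioactivity was counted by liquid scintillation to give IC50.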

MTP = MTP (Homo sapiens, UniProt P55157); test: MTP assay (triglyceride transfer from donor to acceptor vesicles); format: biochemical; details: MTP activity, 37° C.
Description: MTP activity was measured using an assay similar to one described by J. R. Wetterau and D. B. Zilversmit in Chemistry and Physics of Lipids (1985) 38, 205-222. In order to prepare the donor and acceptor vesicles, the appropriate lipids in chloroform were put into a glass test tube and dried under a stream of nitrogen. A buffer containing 15 mM Tris-HCl (pH 7.5), 1 mM ethylenediamine tetra-acetic acid, 40 mM NaCl, 0.02% NaN3 (assay buffer) was added to the dried lipid. The mixture was vortexed briefly and the lipids were then allowed to hydrate for 20 minutes on ice. Vesicles were then prepared by bath sonication (using a Branson 2200 device) at room temperature for at most 15 minutes. Butylated hydroxytoluene was included in all vesicle preparations at a concentration of 0.1%. The lipid transfer assay mixture contained donor vesicles (40 nmole phosphatidylcholine, 7.5 mole % cardiolipin and 0.25 mole % glycerol tri[1-^14C]-oleate), acceptor vesicles (240 nmol phosphatidylcholine) and 5 mg bovine serum albumin in a total volume of 675 μl in a 1.5 ml microcentrifuge tube. Test compounds were added dissolved in dimethylsulfoxide (0.13% final concentration). After 5 minutes of pre-incubation at 37° C., the reaction was started by the addition of MTP in 100 μl of a dialysis buffer. The reaction was stopped by the addition of 400 μl […] (DEAE)-52 cellulose (Sephadex) pre-equilibrated in 15 mM Tris-HCl (pH 7.5), 1 mM ethylenediamine tetra-acetic acid and 0.02% NaN3 (1:1 volume/volume). The mixture was agitated for 4 minutes and centrifuged for 2 minutes at maximum speed in an Eppendorf centrifuge (4° C.) to pellet the DEAE-52-bound donor vesicles. An aliquot of the supernatant containing the acceptor liposomes was counted and the [^14C]-counts were used to calculate the percent triglyceride transfer from donor to acceptor vesicles.
Resulting IC50 values are enumerated in Table C.2 for some of the above-referred compounds.

Chain of MTP (P55157 19-894, species assumed): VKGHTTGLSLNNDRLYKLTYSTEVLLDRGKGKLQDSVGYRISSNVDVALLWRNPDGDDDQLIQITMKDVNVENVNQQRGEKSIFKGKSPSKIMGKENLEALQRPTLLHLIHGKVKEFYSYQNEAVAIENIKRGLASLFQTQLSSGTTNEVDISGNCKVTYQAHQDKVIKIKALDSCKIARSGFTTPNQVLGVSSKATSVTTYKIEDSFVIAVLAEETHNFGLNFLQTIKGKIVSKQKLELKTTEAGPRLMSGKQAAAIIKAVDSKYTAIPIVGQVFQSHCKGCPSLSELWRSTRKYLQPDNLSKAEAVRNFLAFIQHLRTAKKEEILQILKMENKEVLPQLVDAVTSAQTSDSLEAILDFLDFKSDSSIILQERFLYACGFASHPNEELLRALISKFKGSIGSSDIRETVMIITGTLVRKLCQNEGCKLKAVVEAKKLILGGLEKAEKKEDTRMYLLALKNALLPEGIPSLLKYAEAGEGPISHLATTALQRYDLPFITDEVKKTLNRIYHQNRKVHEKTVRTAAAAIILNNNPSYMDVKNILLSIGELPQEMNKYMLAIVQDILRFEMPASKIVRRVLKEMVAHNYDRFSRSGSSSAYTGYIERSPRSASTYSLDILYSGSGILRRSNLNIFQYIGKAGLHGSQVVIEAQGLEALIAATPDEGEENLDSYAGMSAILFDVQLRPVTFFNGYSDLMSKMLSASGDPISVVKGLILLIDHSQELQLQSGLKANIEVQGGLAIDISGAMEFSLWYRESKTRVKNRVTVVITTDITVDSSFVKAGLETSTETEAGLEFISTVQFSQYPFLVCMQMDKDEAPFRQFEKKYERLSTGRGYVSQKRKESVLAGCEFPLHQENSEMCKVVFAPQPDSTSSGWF
Chain of MTP (P07237 18-508 partner, species assumed): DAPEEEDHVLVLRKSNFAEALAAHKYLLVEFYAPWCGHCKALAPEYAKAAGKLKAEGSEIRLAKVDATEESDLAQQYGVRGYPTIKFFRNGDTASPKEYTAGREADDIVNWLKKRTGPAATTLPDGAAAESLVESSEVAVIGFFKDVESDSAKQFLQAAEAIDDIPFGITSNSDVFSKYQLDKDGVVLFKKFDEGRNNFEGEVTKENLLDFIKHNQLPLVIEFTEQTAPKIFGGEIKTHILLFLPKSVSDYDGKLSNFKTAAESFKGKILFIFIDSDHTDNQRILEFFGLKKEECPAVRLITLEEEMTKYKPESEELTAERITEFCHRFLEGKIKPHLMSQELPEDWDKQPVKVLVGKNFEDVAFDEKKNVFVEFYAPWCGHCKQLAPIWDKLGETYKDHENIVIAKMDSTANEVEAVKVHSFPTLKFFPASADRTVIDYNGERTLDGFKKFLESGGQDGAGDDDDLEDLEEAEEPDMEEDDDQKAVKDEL

| Structure (SMILES) | IC50 (MTP) | IC50 [1] | further results |
| --- | --- | --- | --- |
| COC(=O)C(c1ccccc1)N1CCC(c2ccc(NC(=O)c3ccccc3-c3ccc(C(F)(F)F)cc3)cc2)CC1 (single isomer, unassigned) [Co. No. 229] | 52.6 nM |  | pIC50 [1]: 7.409; melting point: 158 °C |
| CCOC(=O)C(c1ccccc1)N1CCC(c2ccc(NC(=O)c3ccccc3-c3ccc(C(F)(F)F)cc3)cc2)CC1 (single isomer, unassigned) [Co. No. 264] | 31.8 nM |  |  |
| O=C(Nc1ccc(N2CCC(C(C(=O)NCc3ccccc3)c3ccccc3)CC2)cc1)c1cccc2c1-c1ccccc1C2 (stereo not shown) [Co. No. 2] |  | 106 nM | melting point: 202 °C |
| O=C(Nc1ccc(N2CCC(C(C(=O)NCc3ccccc3)c3ccccc3)CC2)cc1)c1ccccc1CSc1ccccc1 (stereo not shown) [Co. No. 6] | 198 nM | 108 nM |  |
| O=C(Nc1ccc(N2CCC(C(C(=O)NCc3ccccc3)c3ccccc3)CC2)cc1)c1ccccc1COc1ccccc1 (stereo not shown) [Co. No. 7] | 363 nM | 261 nM |  |
| O=C(Nc1ccc(N2CCC(C(C(=O)NCc3ccccc3)c3ccccc3)CC2)cc1)c1ccccc1Cc1ccccc1 (stereo not shown) [Co. No. 10] | > 3000 nM | 241 nM |  |
| CCCNC(=O)C(c1ccccc1)C1CCN(c2ccc(NC(=O)c3ccccc3CSc3ccccc3)cc2)CC1 (stereo not shown) [Co. No. 16] | 208 nM | 83.8 nM |  |
| COC(=O)C(c1ccccc1)N1CCN(c2ccc(NC(=O)c3ccccc3-c3ccccc3)cc2)CC1 (stereo not drawn) [Co. No. 52, methyl 4-[4-[([1,1′-biphenyl]-2-ylcarbonyl)amino]phenyl]-α-phenyl-1-piperazineacetate] |  | 294 nM | melting point: 125 °C |
| CCOC(=O)C(CN1CCN(c2ccc(NC(=O)c3ccccc3-c3ccc(C(F)(F)F)cc3)cc2)CC1)c1ccccc1 (stereo not shown) [Co. No. 81, ethylphenyl-4-[4-[[[4′-(trifluoromethyl)[1,1′-biphenyl]-2-yl]carbonyl]amino]-phenyl]-1-piperazine propanoate] |  | 178 nM | melting point: 195 °C |
| COC(=O)C(c1ccccc1)C1CCN(c2ccc(NC(=O)c3ccccc3-c3ccc(C(C)C)cc3)cc2)CC1 (stereo not shown) [Co. No. 232] | 25 nM | < 30 nM |  |
| COC(=O)C(c1cccc(Cl)c1)N1CCN(c2ccc(NC(=O)c3ccccc3-c3ccc(C(F)(F)F)cc3)cc2)CC1 (stereo not shown) [Co. No. 260] |  | < 30 nM |  |
| COC(=O)C(c1ccc(Br)cc1)N1CCN(c2ccc(NC(=O)c3ccccc3-c3ccc(C(F)(F)F)cc3)cc2)CC1 (stereo not shown) [Co. No. 261] |  | 743 nM |  |
| CCOC(=O)C(c1ccc(Cl)cc1)N1CCN(c2ccc(NC(=O)c3ccccc3-c3ccc(C(F)(F)F)cc3)cc2)CC1 (stereo not shown) [Co. No. 262] |  | 558 nM |  |
| COC(=O)C(c1ccc(Cl)cc1)N1CCN(c2ccc(NC(=O)c3ccccc3-c3ccc(C(F)(F)F)cc3)cc2)CC1 (stereo not shown) [Co. No. 263] |  | 279 nM |  |
| O=C(Nc1ccc(C2CCN(C(C(=O)OCCc3ccccc3)c3ccccc3)CC2)cc1)c1ccccc1-c1ccc(C(F)(F)F)cc1 (stereo not shown) [Co. No. 266] |  | 25.6 nM |  |
| COC(=O)C(c1ccccc1)N1CCN(c2ccc(NC(=O)c3ccccc3-c3ccsc3)cc2)CC1 (stereo not shown) [Co. No. 267] |  |  | melting point: 150 °C |
| COC(=O)C(c1ccccc1)N1CCN(c2ccc(NC(=O)c3ccccc3-c3cccnc3)cc2)CC1 (stereo not shown) [Co. No. 270] |  |  | melting point: 194 °C |

Further lines, with some results ahead:

| IC50 (MTP) | IC50 [1] | Structure (SMILES) | further results |
| --- | --- | --- | --- |
| 3.64 nM |  | COC(=O)C(c1ccccc1)N1CCC(c2ccc(NC(=O)c3ccccc3-c3ccc(C(F)(F)F)cc3)cc2)CC1 (single isomer, unassigned) [Co. No. 230] | pIC50 [1]: 8.31 |
| 5.62 nM |  | CCOC(=O)C(c1ccccc1)N1CCC(c2ccc(NC(=O)c3ccccc3-c3ccc(C(F)(F)F)cc3)cc2)CC1 (single isomer, unassigned) [Co. No. 265] |  |
| 13.7 nM | 7.89 nM | O=C(Nc1ccc(N2CCN(C(C(=O)NCC(F)(F)F)c3ccccc3)CC2)cc1)c1ccccc1-c1ccc(C(F)(F)F)cc1 (stereo not shown) [Co. No. 1, N-[4-[4-[2-oxo-1-phenyl-2-[(2,2,2-trifluoroethyl)amino]ethyl]-1-piperazinyl]-phenyl]-4′-(trifluoromethyl)-[1,1′-biphenyl]-2-carboxamide] | melting point: 208 °C |
| 18.4 nM | 25.6 nM | O=C(Nc1ccc(N2CCC(C(C(=O)NCc3ccccc3)c3ccccc3)CC2)cc1)c1ccccc1-c1ccccc1 (stereo not shown) [Co. No. 3] |  |
| 7.31 nM | 4.62 nM | O=C(Nc1ccc(N2CCC(C(C(=O)NCc3ccccc3)c3ccccc3)CC2)cc1)c1ccccc1-c1ccc(C(F)(F)F)cc1 (stereo not shown) [Co. No. 11] |  |
| 12 nM |  | COC(=O)C(c1ccccc1)C1CCN(c2ccc(NC(=O)c3ccccc3-c3ccc(C(F)(F)F)cc3)cc2)CC1 (stereo not drawn) [Co. No. 39, methyl α-phenyl-1-[4-[[[4′-(trifluoromethyl)-[1,1′-biphenyl]-2-yl]carbonyl]amino]phenyl]-4-piperidineacetate] | pIC50 ([1]; listed as 39): 7.791; melting point: 151 °C |
| 4.53 nM |  | COC(=O)C(c1ccccc1)N1CCN(c2ccc(NC(=O)c3ccccc3-c3ccc(C(F)(F)F)cc3)cc2)CC1 (stereo not drawn) [Co. No. 40, methyl α-phenyl-4-[4-[[[4′-(trifluoromethyl)[1,1′-biphenyl]-2-yl]carbonyl]amino]phenyl]-1-piperazineacetate] | pIC50 ([1]; listed as 40): 7.586 |
| 8.65 nM | 21.6 nM | COC(=O)C(c1ccccc1)N1CCC(c2ccc(NC(=O)c3ccccc3-c3ccc(C(F)(F)F)cc3)cc2)CC1 (stereo not shown) [Co. No. 41, methylphenyl-4-[4-[[[4′-(trifluoromethyl)[1,1′-biphenyl]-2-yl]carbonyl]amino]phenyl]-1-piperidineacetate] | melting point: 138 °C |
| 5.38 nM | 7.89 nM | CCNC(=O)C(c1ccccc1)N1CCN(c2ccc(NC(=O)c3ccccc3-c3ccc(C(F)(F)F)cc3)cc2)CC1 (stereo not shown) [Co. No. 54, N-[4-[4-[2-(ethylamino)-2-oxo-1-phenylethyl]-1-piperazinyl]phenyl]-4′-(trifluoromethyl)-[1,1′-biphenyl]-2-carboxamide] | melting point: 123 °C |
| 4.27 nM | ≤ 30 nM | CCCNC(=O)C(c1ccccc1)N1CCN(c2ccc(NC(=O)c3ccccc3-c3ccc(C(F)(F)F)cc3)cc2)CC1 (stereo not shown) [Co. No. 55] |  |
| 6.87 nM | 7.57 nM | C=CCNC(=O)C(c1ccccc1)N1CCN(c2ccc(NC(=O)c3ccccc3-c3ccc(C(F)(F)F)cc3)cc2)CC1 (stereo not shown) [Co. No. 57] |  |
| 15.9 nM | ≤ 30 nM | CC(C)CNC(=O)C(c1ccccc1)N1CCN(c2ccc(NC(=O)c3ccccc3-c3ccc(C(F)(F)F)cc3)cc2)CC1 (stereo not shown) [Co. No. 58] |  |
| 8.28 nM | ≤ 30 nM | O=C(Nc1ccc(N2CCN(C(C(=O)NCc3ccccn3)c3ccccc3)CC2)cc1)c1ccccc1-c1ccc(C(F)(F)F)cc1 (stereo not shown) [Co. No. 60] |  |
| 4.79 nM | 3.85 nM | O=C(Nc1ccc(N2CCN(C(C(=O)NCc3ccccc3)c3ccccc3)CC2)cc1)c1ccccc1-c1ccc(C(F)(F)F)cc1 (stereo not shown) [Co. No. 61] |  |
| 8.38 nM | 11.4 nM | CCCCCNC(=O)C(c1ccccc1)N1CCC(c2ccc(NC(=O)c3ccccc3-c3ccc(C(F)(F)F)cc3)cc2)CC1 (stereo not shown) [Co. No. 75] |  |
| 3.2 nM | 2.05 nM | CCNC(=O)C(c1ccccc1)C1CCN(c2ccc(NC(=O)c3ccccc3-c3ccc(C(C)(C)C)cc3)cc2)CC1 (stereo not shown) [Co. No. 87] |  |
| 4.63 nM |  | CCNC(=O)C(c1ccccc1)N1CCN(c2ccc(NC(=O)c3cccc(C)c3-c3ccc(C(F)(F)F)cc3)cc2)CC1 (stereo not shown) [Co. No. 199] |  |
| 2.08 nM |  | COC(=O)C(c1ccccc1)C1CCN(c2ccc(NC(=O)c3ccccc3-c3ccc(C(C)(C)C)cc3)cc2)CC1 (stereo not shown) [Co. No. 203] | pIC50 ([1]; listed as 203): 8.333 |
| 8.41 nM | 19.2 nM | CCOC(=O)C(c1ccccc1)N1CCC(c2ccc(NC(=O)c3ccccc3-c3ccc(C(F)(F)F)cc3)cc2)CC1 (stereo not shown) [Co. No. 222] |  |
| 1.98 nM |  | COC(=O)C(c1ccccc1)N1CCN(c2ccc(NC(=O)c3ccccc3-c3ccc(C(F)(F)F)cc3)cc2)CC1 (stereo not shown) [Co. No. 239] | pIC50 ([1]; listed as 239): 7.855 |
| 10.4 nM |  | COC(=O)C(c1ccccc1)C1CCN(c2ccc(NC(=O)c3ccccc3-c3ccc(C(F)(F)F)cc3)cc2)CC1 (stereo not shown) [Co. No. 241] | pIC50 ([1]; listed as 241): 7.578 |
| 11.5 nM |  | COC(=O)C(c1ccccc1)C1CCN(c2ccc(NC(=O)c3ccccc3-c3ccc(C(F)(F)F)cc3)cc2)CC1 (stereo not shown) [Co. No. 242] | pIC50 ([1]; listed as 242): 8.133 |
